# Test results reported in patent US20210169899A1, “COMPOSITIONS AND THEIR USE IN ORAL DOSING REGIMENS” (Lipocine Inc., priority 2014, published 2021).
# Experiment: Clinical trial of oral testosterone undecanoate TRT in hypogonadal males, 24 hour PK profiles of serum testosterone with dose titration at weeks 3 and 7
# Assay type: in vivo, human
# Protocol: Specifically, 24 hour pharmacokinetic profiles for serum testosterone were determined for hypogonadal subjects receiving 225 mg TU twice daily with a meal after 3 weeks of treatment. The titration or dose adjustment was made based on the serum testosterone Cavg0-24 value calculated from the 24 hour pharmacokinetic profile (or the Cmax value). Another titration or dose adjustment was made similarly at 7 weeks. The titration or adjustment criteria used during the study is shown in the first column of Table A with the titration decision (dose adjustment) is shown in column 3.
# A clinical trial was performed as set forth below in regards to the TRT disclosed herein.
# Diagnosis of primary or secondary hypogonadism Male, 18 to 80 years of age, hypogonadism onset prior to age 65 Serum T<300 ng/dL, based on 2 consecutive samples, obtained on two separate days (6 to 10 AM) either naïve or following appropriate washout.
# IPSS≥19 points PSA>2 ng/mL
# Hemoglobin <11.5 or >16.5 g/dL; Hematocrit <35 or >54% History of myocardial infarction; prostate or breast cancer; uncontrolled, untreated obstructive sleep apnea; gastric surgery, HIV, Hepatitis, seizures or convulsions Subjects with a partner who is pregnant or planning to become pregnant during the study A total of 314 subjects were enrolled and randomized into the TRT arm or active control arm. The clinical trial design is outlined in FIG. 1. Starting dose: 225 mg testosterone undecanoate (TU) (equivalent to 142 mg testosterone) twice daily, 12 hours apart, with standard meals Two dose titration periods based on full 24 hour PK profile at Week 3 and 7
# The dose range was 150 mg to 300 mg BID (total daily dose of 300 mg to 600 mg TU).
# Efficacy Population (N=153): Subjects randomized into the study with at least one PK profile and no significant protocol deviations (includes imputed missing data/LOCF)
# Safety Set (N=210): Subjects randomized into the study and took at least one dose of the drug Imputed missing data by Last Observation Carried Forward (LOCF), or considered treatment failures if no PK data available Full Analysis Set (N=193): Subjects randomized into the study with at least one PK profile (includes imputed missing data/LOCF) Per Protocol Set (N=132): Subjects who completed Week 13 without significant protocol deviations Primary endpoint target ≥75% subjects should achieve Cavg within normal range (300 ng/dL to 1140 ng/dL) and >65% lower bound 95% CI
# [1] = serum total T, Efficacy Population
compound,measurement,setting,value
CCCCCCCCCCC(=O)O[C@H]1CC[C@H]2[C@@H]3CCC4=CC(=O)CC[C@]4(C)[C@H]3CC[C@]12C [testosterone undecanoate],95% CI lower bound of % subjects with Cavg within normal range,Efficacy Population,81.9%
same,% of subjects with Cavg < 300 ng/dL,Efficacy Population,11.2%
same,% of subjects with Cavg > 1140 ng/dL,Efficacy Population,0.7%
same,% subjects with Cavg within normal range,"Efficacy Population, serum testosterone Cavg 300 ng/dL to 1140 ng/dL",88.2%
same,95% CI lower bound of % subjects with Cavg within normal range,Full Analysis Set,82.0%
same,% subjects with Cavg within normal range,"Full Analysis Set, Cavg 300 ng/dL to 1140 ng/dL",87.5%
same,95% CI lower bound of % subjects with Cavg within normal range,Per Protocol Set,81.1%
same,% subjects with Cavg within normal range,"Per Protocol Set, Cavg 300 ng/dL to 1140 ng/dL",87.9%
same,95% CI lower bound of % subjects with Cavg within normal range,Safety Set,73.8%
same,% subjects with Cavg within normal range,"Safety Set, Cavg 300 ng/dL to 1140 ng/dL",80.0%
same,AM - PM effect,comparison table,Not much different AM - PM
same,Subjects with Cavg < 300 ng/dL,comparison table,11%
same,Variability (CV) of Cavg,comparison table,37%
same,Variability (CV) of Cmax,comparison table,45%
same,Mean Cavg,"comparison table, serum testosterone",447 ng/dL
same,Efficacy (% subjects with Cavg in normal range),"comparison table, starting daily dose 450 mg TU",analysis (88.2%)
same,"24 hour pharmacokinetic profiles at weeks 3, 7 and 13 (FIG. 2)",patients without dose change during the trial,consistent inter-day pharmacokinetics
same,"Cavg, Mean (CV)","serum testosterone, Efficacy Population",447 (37%) ng/dL
same,Proportion of subjects with 1800 ≤ Cmax ≤ 2500 ng/dL,[1],4.6%
same,Proportion of subjects with Cmax < 1500 ng/dL,[1],82.9%
same,Proportion of subjects with Cmax > 2500 ng/dL,[1],2.0%
same,% subjects with serum testosterone Cavg0-24 h within the normal range,subjects treated with TRT and titration scheme,about 87%
